Broadly, the IC50 is the concentration that gives 50% inhibition. Read a low IC50 as greater potency.

Consider eleven compounds from patent publication US10106534B2 (CELGENE QUANTICEL RESEARCH, INC., priority 2014, dated 2018).

Each structure is given as a SMILES string.

The subject of test [1] is KYSE-150 esophageal carcinoma cell line. The test can be described thus: In vitro cell-based assay: cellular proliferation via BrdU incorporation (ELISA). Particulars: Homo sapiens, KYSE-150, 168 hours compound incubation. Further details: species or system human. A digest of the protocol:
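BrdU incorporation during S-phase, detected colorimetrically at 450 nm by peroxidase ELISA, measured proliferation after 168 h compound exposure.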
A general note: Dividing cells build labelled thymidine or BrdU into new DNA.

The target of a further test is JMJD2C (Homo sapiens (Human), UniProt Q9H3R0). The test can be described thus: In vitro enzyme inhibition assay for JMJD2C activity (TR-FRET). The test is classed as biochemical. A digest of the protocol:
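Demethylation product H3K9me2 quantified by TR-FRET ratio 665/615 after EDTA stop and 1 h with Eu-anti-H3K9me2 and streptavidin-APC; IC50 by curve fit. Reaction: 0.3 nM JMJD2C (AA 2-372, baculovirus), 2 μM α-ketoglutarate, 300 nM biotin-H3K9me3 peptide, pH 7.3 HEPES with Fe(II)/ascorbate, 30 min room temperature.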
For orientation: In TR-FRET formats the signal depends on donor and acceptor labels being close together.

Chain of JMJD2C (Q9H3R0 2-372): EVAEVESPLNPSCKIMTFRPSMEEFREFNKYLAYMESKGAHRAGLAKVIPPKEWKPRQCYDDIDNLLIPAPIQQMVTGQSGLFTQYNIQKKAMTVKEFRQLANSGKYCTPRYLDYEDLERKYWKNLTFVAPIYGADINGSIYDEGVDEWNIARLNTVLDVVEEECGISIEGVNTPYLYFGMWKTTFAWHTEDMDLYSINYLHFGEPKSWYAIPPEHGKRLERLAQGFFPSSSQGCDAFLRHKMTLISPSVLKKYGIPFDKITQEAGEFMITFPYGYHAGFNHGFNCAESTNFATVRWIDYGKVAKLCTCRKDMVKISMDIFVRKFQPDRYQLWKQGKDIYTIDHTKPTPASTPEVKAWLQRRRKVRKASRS

For `CN(c1ccc2c(c1)CCC[C@H]2CNc1cnccc1C(=O)O)c1ccn(C)c(=O)c1` [Example 155, 3-({[(1R)-6-[methyl(1-methyl-2-oxo-1,2-dihydropyridin-4-yl)amino]-1,2,3,4-tetrahydronaphthalen-1-yl]methyl}amino)pyridine-4-carboxylic acid], the IC50 in test [1] was over 10 µM; against JMJD2C it was 0.1 to 1 µM.
Consider `CN(c1ccc(CO)cc1)c1ccc2c(c1)CCC[C@H]2CNc1cnccc1C(=O)O` [Example 158, 3-({[(1R)-6-{[4-(hydroxymethyl)phenyl](methyl)amino}-1,2,3,4-tetrahydronaphthalen-1-yl]methyl}amino)pyridine-4-carboxylic acid], for which the IC50 (in test [1]; against JMJD2C) was 0.1 to 1 µM each time.
Regarding `CN(c1ccc(C2CC2)cc1)c1ccc2c(c1)CCC[C@H]2CNc1cnccc1C(=O)O` [Example 161, 3-({[(1R)-6-[(4-cyclopropylphenyl)(methyl)amino]-1,2,3,4-tetrahydronaphthalen-1-yl]methyl}amino)pyridine-4-carboxylic acid], the IC50 was at most 0.1 µM in test [1] and 1 to 10 µM on JMJD2C.
The corresponding values for `COCCN(c1ccc(C2CC2)cc1)c1ccc2c(c1)CCC[C@H]2CNc1cnccc1C(=O)O` [Example 163, 3-({[(1R)-6-[(4-cyclopropylphenyl)(2-methoxyethyl)amino]-1,2,3,4-tetrahydronaphthalen-1-yl]methyl}amino)pyridine-4-carboxylic acid] are at most 0.1 µM and 1 to 10 µM.
In the same order, the values of `CN(c1ccc(N2CCCC2)cc1)c1ccc2c(c1)CCC[C@H]2CNc1cnccc1C(=O)O` [Example 167, 3-({[(1R)-6-{methyl[4-(pyrrolidin-1-yl)phenyl]amino}-1,2,3,4-tetrahydronaphthalen-1-yl]methyl}amino)pyridine-4-carboxylic acid] are at most 0.1 µM and 0.1 to 1 µM.
For the compound `Cc1cc(N(C)c2ccc3c(c2)CCC[C@H]3CNc2cnccc2C(=O)O)no1` [Example 171, 3-({[(1R)-6-[methyl(5-methyl-1,2-oxazol-3-yl)amino]-1,2,3,4-tetrahydronaphthalen-1-yl]methyl}amino)pyridine-4-carboxylic acid], the IC50 is over 10 µM in test [1] and 1 to 10 µM on JMJD2C.
The corresponding values for `COc1ccccc1N(C)c1ccc2c(c1)CCC[C@H]2CNc1cnccc1C(=O)O` [Example 172, 3-({[(1R)-6-[(2-methoxyphenyl)(methyl)amino]-1,2,3,4-tetrahydronaphthalen-1-yl]methyl}amino)pyridine-4-carboxylic acid] are 0.1 to 1 µM and 0.1 to 1 µM.
The corresponding values for `CN(c1ccncc1)c1ccc2c(c1)CCC[C@H]2CNc1cnccc1C(=O)O` [Example 173, 3-({[(1R)-6-[methyl(pyridin-4-yl)amino]-1,2,3,4-tetrahydronaphthalen-1-yl]methyl}amino)pyridine-4-carboxylic acid] are over 10 µM and at most 0.1 µM.
Consider `CN(c1ccc(C2=CCOCC2)cc1)c1ccc2c(c1)CCC[C@H]2CNc1cnccc1C(=O)O` [Example 174, 3-({[(1R)-6-{[4-(3,6-dihydro-2H-pyran-4-yl)phenyl](methyl)amino}-1,2,3,4-tetrahydronaphthalen-1-yl]methyl}amino)pyridine-4-carboxylic acid], for which the figures for the IC50 (in test [1]; on JMJD2C) were at most 0.1 µM and 1 to 10 µM, respectively.
As for `CN(c1ccc(C2CCOCC2)cc1)c1ccc2c(c1)CCC[C@H]2CNc1cnccc1C(=O)O` [Example 175, 3-({[(1R)-6-{methyl[4-(oxan-4-yl)phenyl]amino}-1,2,3,4-tetrahydronaphthalen-1-yl]methyl}amino)pyridine-4-carboxylic acid], the IC50 in test [1] is at most 0.1 µM; against JMJD2C it was 1 to 10 µM.
In the same order, the values of `C=Cc1ccc(N(C)c2ccc3c(c2)OCC[C@H]3CNc2cnccc2C(=O)O)cc1` [Example 176, 3-({[(4R)-7-[(4-ethenylphenyl)(methyl)amino]-3,4-dihydro-2H-1-benzopyran-4-yl]methyl}amino)pyridine-4-carboxylic acid] are at most 0.1 µM and 0.1 to 1 µM.
